# Measurements from PubChem BioAssay AID624258 (Broad Institute, 2012).
# Calls of active or inactive are those of the source. No rule for the calls is given here.
# Test: SKN7 mediated toxicity in Saccharomyces cerevisiae, growth rescue counterscreen, dose confirmation (AID 624258);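 also: growth read after three days of incubation at 30 °C; 0% = median of neutral control wells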
# Conditions: S. cerevisiae SKN7-toxicity growth rescue, plate reader; at 19.5 µM (top of the series)
row,SMILES,growth rescue activity
1,CCCCC(=O)NC(=S)NNC(=O)CCc1ccccc1,-22.9% (inactive)
2,Oc1c(CN2CCCC2)cc(COCc2ccccc2)c2cccnc12,23.1% (inactive)
3,C=C(C)COc1ccc(-c2[nH]ncc2-c2ccc(Br)cc2)c(O)c1,-77.7% (inactive)
4,CC1(C)C=Cc2c(ccc3c2OC[C@@H](c2ccc(O)cc2O)C3)O1,-92.6% (inactive)
5,Cc1cc(Nc2ccccc2)nn1C(=O)c1ccccc1,7.09% (inactive)
6,CCOc1cc([N+](=O)[O-])cc(/C=N/NC(=O)c2c(-c3ccccc3)noc2C)c1O,0.098% (inactive)
7,CC/C(=N/NC(=O)c1ccccc1O)c1c(C)[nH]n(-c2ccccc2)c1=O,-59.4% (inactive)
8,CCCCCC1CCC(c2ccc(/C(N)=N/O)cc2)CC1 (configuration not stated),-61.8% (inactive)
9,Cn1ccc(=Nc2ccc(NC(=O)c3ccc(N=c4ccn(C)c5ccc([N+](=O)[O-])cc45)cc3)cc2)cc1,-76.1% (inactive)
10,Cc1c(C(=O)O)cccc1-c1ccc(/C=N/Nc2ccc(Br)cc2)o1,-92.6% (inactive)
11,C=CCOc1ccc(-c2n[nH]c(=S)o2)cc1,-47.1% (inactive)
12,CN(C)c1nc(-c2ccccn2)nnc1-c1ccccc1,-23.6% (inactive)
13,COc1ccc(O)c(C(=O)CC(=O)c2ccc(F)cc2)c1,-74.9% (inactive)
14,Cc1cc(NS(=O)(=O)c2ccc(C3CCCCC3)cc2)no1,-38.7% (inactive)
15,c1ccc(Nc2nc(-c3ccccn3)cs2)cc1,-0.973% (inactive)
16,Clc1ccccc1C(c1ccccc1)(c1ccccc1)n1ccnc1,-48.3% (inactive)
17,CC1CN(C(=O)c2cc([N+](=O)[O-])cc([N+](=O)[O-])c2)CC(C)O1 (configuration not stated),-63% (inactive)
18,COC(OC)c1ccc(C#N)c(SCc2ccccc2)n1,-28.8% (inactive)
19,CCCC(C)Sc1nc2c([nH]1)c(=S)n(C)c(=O)n2C (configuration not stated),-31.9% (inactive)
20,CCn1c(-c2cc(-c3ccc(C)cc3)nc3ccccc23)n[nH]c1=S,-24.4% (inactive)
21,O=C(COc1ccc([N+](=O)[O-])cc1)Nc1nc(-c2ccccn2)cs1,-63.6% (inactive)
22,Oc1c(C(Nc2ccccn2)c2cccnc2)cc(Cl)c2cccnc12 (configuration not stated),-70.7% (inactive)
23,Cc1ccc(NS(=O)(=O)c2ccc(N3CCN(c4ccc(O)cc4)CC3)c([N+](=O)[O-])c2)c(C)c1,-52.6% (inactive)
24,Clc1ccc(C(Cn2ccnc2)OCc2c(Cl)cccc2Cl)c(Cl)c1 (configuration not stated),-69.1% (inactive)

row,SMILES,growth rescue activity
1,CC(Nc1cccc2ccccc12)C(=O)N/N=C/c1ccccn1 (configuration not stated),-11.5% (inactive)
2,COc1cc2c(c(OC)c1OC)-c1ccc(O)c(=O)cc1[C@@H](NC(C)=O)CC2,-29.6% (inactive)
3,CCCCCC1CCC(c2n[nH]c(=S)n2C)CC1 (configuration not stated),-58.3% (inactive)
4,Cc1cc(NC2=CC(=O)C(=O)c3ccccc32)no1,-9.16% (inactive)
5,COc1ccc(S(=O)(=O)Nc2cc(SCC(=O)O)c(O)c3ccccc23)cc1,4.66% (inactive)
6,O=C(Nc1cc(Oc2ccc(Cl)cc2)cc([N+](=O)[O-])c1)c1ccco1,-42.9% (inactive)
7,O=C1C=C(N(CCO)Cc2ccccc2)c2ccccc2C1=O,12.2% (inactive)
8,O=S(=O)(O)c1cc(Cl)cc(N=Nc2ccc(O)cc2O)c1O,41.4% (inactive)
9,Cn1nc(C(F)(F)F)c(C#N)c1N1CCN(c2ccc(F)cc2)CC1,-49.6% (inactive)
10,COc1cnc(-c2ccccn2)nc1Sc1ccc(C)cc1,-65.7% (inactive)
11,COc1ccc(/C=N/Nc2cc(C)nc(-n3nc(C)cc3C)n2)cc1,-51.9% (inactive)
12,CN(C)c1ccc(C=c2c3ccccc3n3c2cc(-c2ccc(Cl)cc2)[n+]3C)cc1,-52.4% (inactive)
13,Cc1onc(-c2ccccc2)c1C(=O)NC(=S)NNC(=O)c1ccc(O)cc1O,-33.4% (inactive)
14,COC(=O)C1=NN(C(=O)c2cccc(Br)c2)C(O)(c2ccc(Cl)cc2)C1 (configuration not stated),-17.5% (inactive)
15,CC(=O)NC(c1ccc(C)cc1)c1cc([N+](=O)[O-])c2cccnc2c1O (configuration not stated),61% (inactive)
16,CC1(C)CC(=O)C(N=Nc2ccc3ncsc3c2)=C(O)C1,0.603% (inactive)
17,CN(C)c1ccc(NC2=C(Cl)C(=O)c3ccccc3C2=O)cc1,-12.8% (inactive)
18,CC(=O)N1CC[n+]2c(-c3ccc(Cl)cc3)csc21,-24.8% (inactive)
19,O=C(OCC(=O)C12CC3CC(CC(C3)C1)C2)c1ccc(O)cc1,-10.8% (inactive)
20,O/N=C(\c1ccc(Cl)cc1Cl)c1ncc(C(F)(F)F)cc1Cl,-32.2% (inactive)
21,Cc1nc2c(o1)C(=O)c1ccccc1C2=Nc1ccccc1,-29.5% (inactive)
22,OCCN(CCO)c1cc2c3ccccc3ccc2c2ccccc12,9.38% (inactive)
23,COC(=O)C1=C(C)NC(C)=C(C(=O)OCC(C)C)C1c1ccccc1[N+](=O)[O-] (configuration not stated),-47.9% (inactive)
